Test [1] concerns the target T1, p-hydroxybenzoate hydroxylase (Pseudomonas fluorescens, UniProt P00438). Kind of test: Binding affinity against p-hydroxybenzoate hydroxylase (PHBH) from Pseudomonas fluorescence competing with p-hydroxy benzoic acid.
For test [2], the target named is T1, p-hydroxybenzoate hydroxylase. Kind of test: Binding affinity against p-hydroxybenzoate hydroxylase (PHBH) from Pseudomonas fluorescence competing with NADPH.
Test [3] shares this target. Kind of test: Inhibitory concentration against p-hydroxybenzoate hydroxylase (PHBH) from Pseudomonas fluorescence.

T1 sequence (P00438 whole entry): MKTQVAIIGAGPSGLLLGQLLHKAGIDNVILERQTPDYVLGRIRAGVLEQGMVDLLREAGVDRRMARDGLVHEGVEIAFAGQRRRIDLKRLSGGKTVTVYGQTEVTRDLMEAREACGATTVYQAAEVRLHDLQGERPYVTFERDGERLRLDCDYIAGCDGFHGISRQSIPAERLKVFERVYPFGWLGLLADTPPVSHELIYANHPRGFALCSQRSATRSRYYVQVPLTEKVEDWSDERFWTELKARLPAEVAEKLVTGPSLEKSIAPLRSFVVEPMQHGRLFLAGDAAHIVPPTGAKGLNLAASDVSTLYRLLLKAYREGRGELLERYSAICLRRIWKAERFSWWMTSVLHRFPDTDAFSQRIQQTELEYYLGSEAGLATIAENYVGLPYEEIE

As for `O=C(O)c1ccc(O)cc1OCc1ccccc1`, the values for the Ki in test [1] and in test [2] were 59 nM and 69 nM, respectively.
With `O=C(O)c1ccc(O)c(OCc2ccccc2)c1`, the IC50 in test [3] turned out to be 100000 nM.
